The source made the active and inactive calls. The rule behind the calls is not given here.
What was measured:
HeLa = assay: Cytotoxicity against HeLa cells; assay type: functional, cell-based; settings: Homo sapiens
Histone deacetylase 1 = Histone deacetylase 1 (Homo sapiens, UniProt Q13547)
Description: Inhibition of recombinant HDAC1 in HeLa cells

Histone deacetylase [1] = assay: Inhibition of HDAC in HeLa cells assessed as induction of human histone H3 hyperacetylation; assay type: cell-based
Histone deacetylase [2] = assay: Inhibition of HDAC in HeLa cells; assay type: cell-based, Homo sapiens
Histone deacetylase 3 = Histone deacetylase 3 (Homo sapiens, UniProt O15379); assay: Inhibition of recombinant HDAC3
MDA-MB-468 = assay: Cytotoxicity against human MDA-MB-468 cells; assay type: functional, cell-based
A549 [3] = assay: Induction of apoptosis in A549 cells at 10 uM; assay type: functional, cell-based; settings: Homo sapiens
HCT-15 = assay: Cytotoxicity against human HCT15 cells; assay type: functional, cell-based
NCI-H460 = assay: Cytotoxicity against human NCI H460 cells; assay type: functional, cell-based
MDA-MB-231 = assay: Cytotoxicity against human MDA-MB-231cells; assay type: functional, cell-based
A549 [4] = assay: Induction of human histone H3 hyperacetylation in A549 cells at 1 to 3 uM; assay type: functional, cell-based
NCI = assay: Cytotoxicity against human NCI H69 cells; assay type: functional, cell-based
[5] = Cytotoxicity against human U87MG cells; assay type: functional, cell-based, U-87MG ATCC; settings: U-87 MG
[6] = Cytotoxicity against human non-proliferating RKOp21 cells; assay type: functional, cell-based
EOL1 = assay: Cytotoxicity against human EOL1cells; assay type: functional, cell-based
CCRF-CEM [7] = assay: Cytotoxicity against vincristine resistant human CCRF-CEM cells; assay type: functional, cell-based
[8] = Cytotoxicity against human proliferating RKOp21 cells; assay type: functional, cell-based
549 = assay: Inhibition of histone-H3S phosphorylation in […] cells at 10 uM; assay type: cell-based
SAOS-2 = assay: Cytotoxicity against human Saos2 cells; assay type: functional, cell-based
A549 [9] = assay: Cytotoxicity against human A549 cells; assay type: functional, cell-based
[10] = Cytotoxicity against human Hec-1-A cells; assay type: functional, cell-based
RKO [11] = assay: Induction of human histone H3 hyperacetylation in RKO cells at 1 to 3 uM; assay type: functional, cell-based
MCF7 = assay: Cytotoxicity against human MCF7 cells; assay type: functional, cell-based
A2780 = assay: Cytotoxicity against human A2780 cells; assay type: functional, cell-based
RKO [12] = assay: Inhibition of histone-H3S phosphorylation in human RKO cells at 10 uM; assay type: cell-based
Histone deacetylase 8 = Histone deacetylase 8 (Homo sapiens, UniProt Q9BY41); assay: Inhibition of recombinant HDAC8
cells = assay type: functional, cell-based; settings: Homo sapiens, WM 266-4
Description: Cytotoxicity against human WM 266-4 cells

PC-3 = assay: Cytotoxicity against human PC3 cells; assay type: functional, cell-based
A-431 = assay: Cytotoxicity against human A431 cells; assay type: functional, cell-based
SK-BR-3 = assay: Cytotoxicity against human SKBR3 cells; assay type: functional, cell-based
K562 = assay: Cytotoxicity against human K562 cells; assay type: functional, cell-based
CCRF-CEM [13] = assay: Cytotoxicity against human CCRF-CEM cells; assay type: functional, cell-based
ASPC1 = assay: Cytotoxicity against human AsPC1 cells; assay type: functional, cell-based
HCT-116 = assay: Cytotoxicity against human HCT116 cells; assay type: functional, cell-based
SK-OV-3 = assay: Cytotoxicity against human SK-OV-3 cells; assay type: functional, cell-based
CAL-27 = assay: Cytotoxicity against human Cal27 cells; assay type: functional, cell-based

Sequence of Histone deacetylase 1 (Q13547 whole entry): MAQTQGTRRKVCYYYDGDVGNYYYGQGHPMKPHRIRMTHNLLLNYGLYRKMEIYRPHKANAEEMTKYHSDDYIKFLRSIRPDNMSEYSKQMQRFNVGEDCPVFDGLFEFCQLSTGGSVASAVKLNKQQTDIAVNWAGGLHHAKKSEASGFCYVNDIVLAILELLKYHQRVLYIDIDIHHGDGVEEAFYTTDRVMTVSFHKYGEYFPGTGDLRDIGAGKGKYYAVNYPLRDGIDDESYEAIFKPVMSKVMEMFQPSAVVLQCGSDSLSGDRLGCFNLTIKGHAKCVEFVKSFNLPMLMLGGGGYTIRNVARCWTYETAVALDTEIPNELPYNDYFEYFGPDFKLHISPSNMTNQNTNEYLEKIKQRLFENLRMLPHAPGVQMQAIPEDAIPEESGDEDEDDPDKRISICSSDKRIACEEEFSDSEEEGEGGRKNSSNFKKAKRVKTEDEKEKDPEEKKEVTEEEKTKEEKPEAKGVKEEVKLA
Sequence of Histone deacetylase 3 (O15379 whole entry): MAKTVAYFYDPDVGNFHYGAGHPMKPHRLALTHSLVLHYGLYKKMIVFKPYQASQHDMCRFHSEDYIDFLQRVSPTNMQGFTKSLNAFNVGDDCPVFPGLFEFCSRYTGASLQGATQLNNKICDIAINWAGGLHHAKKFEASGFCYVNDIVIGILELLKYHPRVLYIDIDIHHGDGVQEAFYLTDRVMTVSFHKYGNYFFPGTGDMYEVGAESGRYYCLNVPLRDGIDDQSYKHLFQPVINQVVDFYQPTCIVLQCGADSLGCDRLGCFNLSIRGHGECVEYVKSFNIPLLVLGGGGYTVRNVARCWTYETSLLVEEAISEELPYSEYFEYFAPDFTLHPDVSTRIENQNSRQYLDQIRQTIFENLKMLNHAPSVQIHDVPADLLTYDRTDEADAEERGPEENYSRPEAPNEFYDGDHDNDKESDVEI
Sequence of Histone deacetylase 8 (Q9BY41 whole entry): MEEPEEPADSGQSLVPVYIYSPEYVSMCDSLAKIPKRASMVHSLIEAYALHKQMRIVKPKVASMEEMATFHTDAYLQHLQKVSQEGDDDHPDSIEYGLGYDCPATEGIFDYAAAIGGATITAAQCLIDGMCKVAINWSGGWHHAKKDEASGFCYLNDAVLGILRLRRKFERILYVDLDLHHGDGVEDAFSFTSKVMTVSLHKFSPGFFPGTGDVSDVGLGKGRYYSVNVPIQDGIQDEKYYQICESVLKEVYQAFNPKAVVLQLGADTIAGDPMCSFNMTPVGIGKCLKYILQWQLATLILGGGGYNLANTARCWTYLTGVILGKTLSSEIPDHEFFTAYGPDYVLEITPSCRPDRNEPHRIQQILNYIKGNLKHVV

In the case of `COc1cccc(C(=O)c2cc3cc(/C=C/C(=O)NO)ccc3n2S(=O)(=O)c2ccccc2)c1`, the IC50 (HeLa) is reported as 3340 nM, the IC50 (Histone deacetylase 1) is reported as 230 nM and the EC50 (Histone deacetylase [1]) is reported as 2780 nM. For the same molecule, the IC50 (Histone deacetylase [2]) was 120 nM.

For `O=C(/C=C/c1cccc(C(=O)c2cc3ccccc3[nH]2)c1)NO`, the IC50 (Histone deacetylase 3) was 50 nM, the IC50 (MDA-MB-468) was 550 nM and the Activity (A549 [3]) was “Active”. It also gave an IC50 (HCT-15) of 770 nM, an IC50 (NCI-H460) of 260 nM and an IC50 (MDA-MB-231) of 900 nM. For the same molecule, the IC50 (HeLa) was 850 nM, the Activity (A549 [4]) was “Active” and the IC50 (NCI) was 330 nM. It also gave an IC50 [5] of 1000 nM, an IC50 [6] of 2570 nM and an IC50 (EOL1) of 73 nM. The IC50 (CCRF-CEM [7]) was 250 nM, the IC50 [8] was 1050 nM and the Activity 549 was “Active”. It also gave an IC50 (SAOS-2) of 1000 nM, an IC50 (Histone deacetylase 1) of 31 nM and an IC50 (A549 [9]) of 970 nM. For the same molecule, the EC50 (Histone deacetylase [1]) was 1300 nM, the IC50 [10] was 620 nM and the Activity (RKO [11]) was “Active”. The IC50 (MCF7) was 1900 nM, the IC50 (A2780) was 340 nM and the Activity (RKO [12]) was “Active”. For the same molecule, the IC50 (Histone deacetylase 8) was 32 nM, the IC50 (cells) was 310 nM and the IC50 (Histone deacetylase [2]) was 39 nM. The IC50 (PC-3) was 210 nM, the IC50 (A-431) was 600 nM and the IC50 (SK-BR-3) was 530 nM. For the same molecule, the IC50 (K562) was 170 nM, the IC50 (CCRF-CEM [13]) was 200 nM and the IC50 (ASPC1) was 3900 nM. For the same molecule, the IC50 (HCT-116) was 360 nM, the IC50 (SK-OV-3) was 900 nM and the IC50 (CAL-27) was 750 nM.

With `O=C(/C=C/c1cccc(C(=O)c2cc3ccccc3o2)c1)NO` the IC50 (Histone deacetylase 3) was 79 nM, the IC50 (MDA-MB-468) was 500 nM and the Activity (A549 [3]) was “Active”. The IC50 (HCT-15) was 740 nM, the IC50 (NCI-H460) was 250 nM and the IC50 (MDA-MB-231) was 730 nM. The IC50 (HeLa) was 680 nM, the Activity (A549 [4]) was “Active” and the IC50 (NCI) was 190 nM. The IC50 [5] was 1100 nM, the IC50 [6] was 3690 nM and the IC50 (EOL1) was 49 nM. The IC50 (CCRF-CEM [7]) was 240 nM, the IC50 [8] was 960 nM and the Activity 549 was “Active”. The IC50 (SAOS-2) was 920 nM, the IC50 (Histone deacetylase 1) was 52 nM and the IC50 (A549 [9]) was 770 nM. The EC50 (Histone deacetylase [1]) was 290 nM, the IC50 [10] was 470 nM and the Activity (RKO [11]) was “Active”. The IC50 (MCF7) was 1300 nM, the IC50 (A2780) was 350 nM and the Activity (RKO [12]) was “Active”. For the same molecule, the IC50 (Histone deacetylase 8) was 79 nM, the IC50 (cells) was 310 nM and the IC50 (Histone deacetylase [2]) was 57 nM. The IC50 (PC-3) was 160 nM, the IC50 (A-431) was 590 nM and the IC50 (SK-BR-3) was 310 nM. It also gave an IC50 (K562) of 150 nM, an IC50 (CCRF-CEM [13]) of 180 nM and an IC50 (ASPC1) of 3500 nM. The IC50 (HCT-116) was 360 nM, the IC50 (SK-OV-3) was 740 nM and the IC50 (CAL-27) was 660 nM.

In the case of `O=C(/C=C/c1ccc(C(=O)c2cc3ccccc3o2)cc1)NO`, the IC50 (HeLa) is reported as 2600 nM, the IC50 (Histone deacetylase 1) is reported as 520 nM and the EC50 (Histone deacetylase [1]) is reported as 1100 nM. The IC50 (Histone deacetylase [2]) was 450 nM.

Work on `COc1cc(C(=O)c2cc3cc(/C=C/C(=O)NO)ccc3o2)cc(OC)c1OC` yielded an IC50 (HeLa) of 5770 nM, an IC50 (Histone deacetylase 1) of 1100 nM and an EC50 (Histone deacetylase [1]) of 7500 nM. For the same molecule, the IC50 (Histone deacetylase [2]) was 1000 nM.

Molecule `O=C(/C=C/c1ccc2c(c1)cc(C(=O)c1ccccc1)n2S(=O)(=O)c1ccccc1)NO` has an IC50 (HeLa) of 2880 nM, an IC50 (Histone deacetylase 1) of 200 nM and an EC50 (Histone deacetylase [1]) of 2670 nM. It also gave an IC50 (Histone deacetylase [2]) of 90 nM.

Work on `O=C(/C=C/c1cccc(C(=O)c2cc3ccccc3n2S(=O)(=O)c2ccccc2)c1)NO` yielded an IC50 (HeLa) of 1730 nM, an IC50 (Histone deacetylase 1) of 89 nM and an EC50 (Histone deacetylase [1]) of 1000 nM. For the same molecule, the IC50 (Histone deacetylase [2]) was 34 nM.

`O=C(/C=C/c1ccc2oc(C(=O)c3ccccc3)cc2c1)NO` gave an IC50 (HeLa) of 5610 nM, an IC50 (Histone deacetylase 1) of 1200 nM and an EC50 (Histone deacetylase [1]) of 2650 nM. It also gave an IC50 (Histone deacetylase [2]) of 830 nM.

Work on `COc1cccc(C(=O)c2cc3cc(/C=C/C(=O)NO)ccc3o2)c1` yielded an IC50 (HeLa) of 4110 nM, an IC50 (Histone deacetylase 1) of 950 nM and an EC50 (Histone deacetylase [1]) of 4100 nM. It also gave an IC50 (Histone deacetylase [2]) of 650 nM.

Molecule `O=C(CCCCCCC(=O)Nc1ccccc1)NO` [VORINOSTAT] has an IC50 (MDA-MB-231) of 2200 nM, an IC50 (SAOS-2) of 2300 nM and an IC50 (SK-OV-3) of 2200 nM.

For `COc1ccc2c(c1)cc(C(=O)c1ccc(/C=C/C(=O)NO)cc1)n2S(=O)(=O)c1ccccc1`, the IC50 (HeLa) was 5420 nM, the IC50 (Histone deacetylase 1) was 880 nM and the EC50 (Histone deacetylase [1]) was 6900 nM. For the same molecule, the IC50 (Histone deacetylase [2]) was 260 nM.

`COc1cccc(C(=O)c2cc3cc(/C=C/C(=O)NO)ccc3[nH]2)c1` showed an IC50 (HeLa) of 2960 nM, an IC50 (Histone deacetylase 1) of 300 nM and an EC50 (Histone deacetylase [1]) of 2570 nM. The IC50 (Histone deacetylase [2]) was 330 nM.

`O=C(/C=C/c1ccc(C(=O)c2cc3ccccc3[nH]2)cc1)NO` gave an IC50 (HeLa) of 4750 nM, an IC50 (Histone deacetylase 1) of 410 nM and an EC50 (Histone deacetylase [1]) of 2970 nM. The IC50 (Histone deacetylase [2]) was 310 nM.

`COc1ccc2[nH]c(C(=O)c3ccc(/C=C/C(=O)NO)cc3)cc2c1` showed an IC50 (HeLa) of 3440 nM, an IC50 (Histone deacetylase 1) of 320 nM and an EC50 (Histone deacetylase [1]) of 4270 nM. It also gave an IC50 (Histone deacetylase [2]) of 280 nM.

In the case of `O=C(/C=C/c1ccc(C(=O)c2cc3ccccc3n2S(=O)(=O)c2ccccc2)cc1)NO`, the IC50 (HeLa) is reported as 5420 nM, the IC50 (Histone deacetylase 1) is reported as 690 nM and the EC50 (Histone deacetylase [1]) is reported as 5700 nM. For the same molecule, the IC50 (Histone deacetylase [2]) was 270 nM.

`O=C(/C=C/c1ccc2[nH]c(C(=O)c3ccccc3)cc2c1)NO` gave an IC50 (HeLa) of 3970 nM, an IC50 (Histone deacetylase 1) of 250 nM and an EC50 (Histone deacetylase [1]) of 3770 nM. For the same molecule, the IC50 (Histone deacetylase [2]) was 340 nM.
